Experimental data taken from the NIST ThermoML archive (doi:10.1007/s10765-010-0766-0).
Where “and” joins values, the source holds several entries; their conditions need not be identical. Identical values can stand only once. ± gives the expanded uncertainty stated by the source.

Details: Liquid, Pycnometric method

FC(F)C(F)(F)OCC(F)(F)F [2,2,2-trifluoroethyl 1,1,2,2-tetrafluoroethyl ether]
Details | mass density
342.15 K, 16809 kPa | 1418.3 ± 2.3 kg/m3
342.15 K, 16812 kPa | 1418.3 ± 2.3 kg/m3
343.15 K, 17505 kPa | 1418.1 ± 2.3 kg/m3
343.15 K, 17508 kPa | 1418.1 ± 2.3 kg/m3
344.15 K, 18201 kPa | 1418 ± 2.3 kg/m3
344.15 K, 18203 kPa | 1418 ± 2.3 kg/m3
345.15 K, 18896 kPa | 1417.8 ± 2.3 kg/m3
345.15 K, 18898 kPa | 1417.8 ± 2.3 kg/m3
346.15 K, 19590 kPa | 1417.7 ± 2.3 kg/m3
346.15 K, 19592 kPa | 1417.7 ± 2.3 kg/m3
347.15 K, 20282 kPa | 1417.5 ± 2.3 kg/m3
347.15 K, 20287 kPa | 1417.6 ± 2.3 kg/m3
348.15 K, 20974 kPa | 1417.4 ± 2.3 kg/m3
348.15 K, 20978 kPa | 1417.4 ± 2.3 kg/m3
349.15 K, 21666 kPa | 1417.3 ± 2.3 kg/m3
349.15 K, 21671 kPa | 1417.3 ± 2.3 kg/m3
350.15 K, 22357 kPa | 1417.1 ± 2.3 kg/m3
350.15 K, 22360 kPa | 1417.2 ± 2.3 kg/m3
351.15 K, 23047 kPa | 1417 ± 2.3 kg/m3
351.15 K, 23050 kPa | 1417 ± 2.3 kg/m3
352.15 K, 23735 kPa | 1416.9 ± 2.3 kg/m3
352.15 K, 23739 kPa | 1416.9 ± 2.3 kg/m3
353.15 K, 24423 kPa | 1416.8 ± 2.3 kg/m3
353.15 K, 24426 kPa | 1416.8 ± 2.3 kg/m3
354.15 K, 25110 kPa | 1416.6 ± 2.3 kg/m3
354.15 K, 25114 kPa | 1416.7 ± 2.3 kg/m3
355.15 K, 25797 kPa | 1416.5 ± 2.3 kg/m3
355.15 K, 25801 kPa | 1416.5 ± 2.3 kg/m3
356.15 K, 26482 kPa | 1416.4 ± 2.3 kg/m3
356.15 K, 26486 kPa | 1416.4 ± 2.3 kg/m3
357.15 K, 27166 kPa | 1416.3 ± 2.3 kg/m3
357.15 K, 27171 kPa | 1416.3 ± 2.3 kg/m3
358.15 K, 27851 kPa | 1416.2 ± 2.3 kg/m3
358.15 K, 27855 kPa | 1416.2 ± 2.3 kg/m3
359.15 K, 5632 kPa | 1334.4 ± 2.2 kg/m3
359.15 K, 5637 kPa | 1334.4 ± 2.2 kg/m3
359.15 K, 28535 kPa | 1416.1 ± 2.3 kg/m3
359.15 K, 28538 kPa | 1416.1 ± 2.3 kg/m3
360.15 K, 6174 kPa | 1334.2 ± 2.2 kg/m3
360.15 K, 6180 kPa | 1334.2 ± 2.2 kg/m3
360.15 K, 29217 kPa | 1415.9 ± 2.3 kg/m3
360.15 K, 29220 kPa | 1416 ± 2.3 kg/m3
361.15 K, 6718 kPa | 1334.1 ± 2.2 kg/m3
361.15 K, 6724 kPa | 1334.1 ± 2.2 kg/m3
361.15 K, 29899 kPa | 1415.8 ± 2.3 kg/m3
361.15 K, 29902 kPa | 1415.9 ± 2.3 kg/m3
362.15 K, 7261 kPa | 1333.9 ± 2.2 kg/m3
362.15 K, 7266 kPa | 1333.9 ± 2.2 kg/m3
363.15 K, 7803 kPa | 1333.8 ± 2.2 kg/m3
363.15 K, 7809 kPa | 1333.8 ± 2.2 kg/m3
364.15 K, 8346 kPa | 1333.6 ± 2.2 kg/m3
364.15 K, 8350 kPa | 1333.6 ± 2.2 kg/m3
365.15 K, 8888 kPa | 1333.5 ± 2.2 kg/m3
365.15 K, 8892 kPa | 1333.5 ± 2.2 kg/m3
366.15 K, 9430 kPa | 1333.3 ± 2.2 kg/m3
366.15 K, 9434 kPa | 1333.4 ± 2.2 kg/m3
367.15 K, 9971 kPa | 1333.2 ± 2.2 kg/m3
367.15 K, 9976 kPa | 1333.2 ± 2.2 kg/m3
368.15 K, 10512 kPa | 1333.1 ± 2.2 kg/m3
368.15 K, 10516 kPa | 1333.1 ± 2.2 kg/m3
369.15 K, 11053 kPa | 1332.9 ± 2.2 kg/m3
369.15 K, 11057 kPa | 1332.9 ± 2.2 kg/m3
370.15 K, 11593 kPa | 1332.8 ± 2.2 kg/m3
370.15 K, 11598 kPa | 1332.8 ± 2.2 kg/m3
371.15 K, 12133 kPa | 1332.7 ± 2.2 kg/m3
371.15 K, 12137 kPa | 1332.7 ± 2.2 kg/m3
372.15 K, 12673 kPa | 1332.5 ± 2.2 kg/m3
372.15 K, 12677 kPa | 1332.6 ± 2.2 kg/m3
373.15 K, 13212 kPa | 1332.4 ± 2.2 kg/m3
373.15 K, 13216 kPa | 1332.4 ± 2.2 kg/m3
374.15 K, 13752 kPa | 1332.3 ± 2.2 kg/m3
374.15 K, 13756 kPa | 1332.3 ± 2.2 kg/m3
375.15 K, 14290 kPa | 1332.2 ± 2.2 kg/m3
375.15 K, 14294 kPa | 1332.2 ± 2.2 kg/m3
376.15 K, 14828 kPa | 1332 ± 2.2 kg/m3
376.15 K, 14831 kPa | 1332 ± 2.2 kg/m3
377.15 K, 15366 kPa | 1331.9 ± 2.2 kg/m3
377.15 K, 15369 kPa | 1331.9 ± 2.2 kg/m3
378.15 K, 15904 kPa | 1331.8 ± 2.2 kg/m3
378.15 K, 15906 kPa | 1331.8 ± 2.2 kg/m3
379.15 K, 16441 kPa | 1331.7 ± 2.2 kg/m3
379.15 K, 16443 kPa | 1331.7 ± 2.2 kg/m3
380.15 K, 16977 kPa | 1331.5 ± 2.2 kg/m3
380.15 K, 16980 kPa | 1331.5 ± 2.2 kg/m3
381.15 K, 17514 kPa | 1331.4 ± 2.2 kg/m3
381.15 K, 17515 kPa | 1331.4 ± 2.2 kg/m3
382.15 K, 18050 kPa | 1331.3 ± 2.2 kg/m3
382.15 K, 18051 kPa | 1331.3 ± 2.2 kg/m3
383.15 K, 18585 kPa | 1331.2 ± 2.2 kg/m3
383.15 K, 18586 kPa | 1331.2 ± 2.2 kg/m3
384.15 K, 19120 kPa | 1331.1 ± 2.2 kg/m3
384.15 K, 19121 kPa | 1331.1 ± 2.2 kg/m3
385.15 K, 19655 kPa | 1330.9 ± 2.2 kg/m3
385.15 K, 19656 kPa | 1330.9 ± 2.2 kg/m3
386.15 K, 20189 kPa | 1330.8 ± 2.2 kg/m3
387.15 K, 20723 kPa | 1330.7 ± 2.2 kg/m3
388.15 K, 21256 kPa | 1330.6 ± 2.2 kg/m3
389.15 K, 21789 kPa | 1330.5 ± 2.2 kg/m3
390.15 K, 22322 kPa | 1330.4 ± 2.2 kg/m3
391.15 K, 22854 kPa | 1330.3 ± 2.2 kg/m3
391.15 K, 22855 kPa | 1330.3 ± 2.2 kg/m3
392.15 K, 23385 kPa | 1330.2 ± 2.2 kg/m3
392.15 K, 23386 kPa | 1330.2 ± 2.2 kg/m3
393.15 K, 23917 kPa | 1330 ± 2.2 kg/m3 and 1330.1 ± 2.2 kg/m3
394.15 K, 24448 kPa | 1329.9 ± 2.2 kg/m3
395.15 K, 24978 kPa | 1329.8 ± 2.2 kg/m3
396.15 K, 25507 kPa | 1329.7 ± 2.2 kg/m3
396.15 K, 25508 kPa | 1329.7 ± 2.2 kg/m3
397.15 K, 26037 kPa | 1329.6 ± 2.2 kg/m3
397.15 K, 26038 kPa | 1329.6 ± 2.2 kg/m3
398.15 K, 26566 kPa | 1329.5 ± 2.2 kg/m3
398.15 K, 26567 kPa | 1329.5 ± 2.2 kg/m3
399.15 K, 27094 kPa | 1329.4 ± 2.2 kg/m3
399.15 K, 27096 kPa | 1329.4 ± 2.2 kg/m3
400.15 K, 27622 kPa | 1329.3 ± 2.2 kg/m3
400.15 K, 27623 kPa | 1329.3 ± 2.2 kg/m3
401.15 K, 28150 kPa | 1329.2 ± 2.2 kg/m3
401.15 K, 28151 kPa | 1329.2 ± 2.2 kg/m3
402.15 K, 28677 kPa | 1329.1 ± 2.2 kg/m3
402.15 K, 28678 kPa | 1329.2 ± 2.2 kg/m3
403.15 K, 29204 kPa | 1329 ± 2.2 kg/m3
403.15 K, 29205 kPa | 1329.1 ± 2.2 kg/m3
404.15 K, 29730 kPa | 1329 ± 2.2 kg/m3
404.15 K, 29732 kPa | 1329 ± 2.2 kg/m3
